“And” between values parts separate entries of the source, which are not always exact repeats. Equal entries are not always repeated.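 Step 1: Grow cells in 96-well plates. Step 2: Expose to compound for 48 hours at 5 concentrations. Step 3: Interpolate endpoints linearly; if unreached, use highest concentration. Abbreviation: GI50, concentration required for 50% inhibition of growth. TGI: total growth inhibition.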
What follows are compounds tested on MDA-MB-468 breast (assay: NCI tumour cell line growth inhibition, 48 h).

Question: With `CC1(C)[C@@H](NOCCCN)CC[C@]2(C)[C@H]3C(=O)C=C4[C@@H]5C[C@](C)(C(=O)O)CC[C@]5(C)CC[C@@]4(C)[C@]3(C)CC[C@@H]12` as the compound, how does the GI50 read?
Answer: 2360 nM

Question: And the TGI?
Answer: 5450 nM

Question: What does the source list for `COc1ccccc1NC(=O)c1cc2cc(Br)ccc2cc1O`?
Answer: GI50: 2790 nM; TGI: 7870 nM

Question: How did the GI50 turn out when `COc1cc(/C=C2\CN(S(=O)(=O)c3ccc(C)cc3)C/C(=C\c3cc(CN4CCCC4)c(O)c(OC)c3)C2=O)cc(CN2CCCC2)c1O` was run?
Answer: 1150 nM

Question: What about the TGI of the same compound?
Answer: 2650 nM

Question: How did the GI50 turn out when `CN1CCN(c2ccc(Nc3ncc(Cl)c(NC[C@@H]4CCCO4)n3)cc2)CC1` was run?
Answer: 2180 nM

Question: What about the TGI of the same compound?
Answer: 6640 nM

Question: For `CCN1C(=O)N(CC)C2SC(N/N=C/C=C/c3ccccc3OC)=NC21` (stereo not drawn), which GI50 is on record?
Answer: 326 nM

Question: What about the TGI of the same compound?
Answer: 48900 nM

Question: Which GI50 does the source give for `COCCn1cc(-c2nc(-c3cc4cccnc4[nH]3)cs2)c2cc(OC)ccc21` here?
Answer: 31.7 nM

Question: And the TGI?
Answer: 192 nM

Question: With `C#Cc1cccc(Nc2nc3cc([N+](=O)[O-])ccc3nc2Nc2ccc(O)cc2)c1` as the compound, how does the GI50 read?
Answer: 1430 nM

Question: What about the TGI of the same compound?
Answer: 3260 nM

Question: How did the GI50 turn out when `C#CC(=O)N(c1ccc(OC)cc1OC)C(C(=O)NCC(=O)OCC)c1cccs1` (stereo not drawn) was run?
Answer: 316 nM

Question: What about the TGI of the same compound?
Answer: 1170 nM

Question: For `COc1ccc2ncnc(Nc3ccc(OCc4ccccc4)cc3)c2c1`, which GI50 is on record?
Answer: 2770 nM

Question: And the TGI?
Answer: 9080 nM

Question: Which results are given for `O=C(Nc1cccc(C(F)(F)F)c1)Nc1cccc(C(F)(F)F)c1`?
Answer: GI50: 675 nM; TGI: 3170 nM

Question: With `COC(=O)[C@]12CC[C@@H](C)[C@H](C)[C@@H]1C1=CC[C@@H]3[C@@]4(C)C[C@@H](O)[C@H](O)[C@@](C)(CO)[C@@H]4[C@H](O)C[C@@]3(C)[C@]1(C)CC2` as the compound, how does the GI50 read?
Answer: 10500 nM

Question: And the TGI?
Answer: 24800 nM

Question: With `CNC(=O)c1cc(Oc2ccc3nc(NC(=O)c4ccc(CN5CCCN(C)CC5)c(C(F)(F)F)c4)sc3c2)ccn1` as the compound, how does the GI50 read?
Answer: 1190 nM

Question: What about the TGI of the same compound?
Answer: 2590 nM

Question: With `CC(=C(c1ccc(OCCN2CCCCC2)cc1)c1ccc(OCCN2CCCCC2)cc1)c1ccc(Cl)cc1` as the compound, how does the GI50 read?
Answer: 402 nM

Question: And the TGI?
Answer: 809 nM

Question: What does the source list for `C=C1C(=O)O[C@H]2[C@H]1CC/C(CNC(=O)c1cc3ccccc3[nH]1)=C\CC[C@@]1(C)O[C@@H]21`?
Answer: GI50: 1050 nM; TGI: 3600 nM

Question: Which GI50 does the source give for `COc1ccc(C(c2cc(OC)c(OC)c(OC)c2)n2cncn2)cc1O` (stereo not drawn) here?
Answer: 371 nM

Question: And the TGI?
Answer: > 100000 nM

Question: Which results are given for `CCNC(=O)C#Cc1ccc2c(C(=Nc3ccc(CN(C)C)cc3)c3ccccc3)c(O)[nH]c2c1`?
Answer: GI50: 62.1 nM; TGI: 914 nM

Question: For `O=C1OCC2=C1C(c1cccc(Br)c1)c1cc3c(cc1N2CCO)OCCO3` (stereo not drawn), which GI50 is on record?
Answer: 25.8 nM

Question: What about the TGI of the same compound?
Answer: 181 nM

Question: For `COc1c2ccccc2c(OC)c2[nH]c(=O)ccc12`, which GI50 is on record?
Answer: 4770 nM

Question: What about the TGI of the same compound?
Answer: > 91700 nM

Question: How did the GI50 turn out when `Cc1cc(Nc2ccc(C)c(Cl)c2)n2nc(C(F)(F)F)nc2n1` was run?
Answer: 18700 nM

Question: What about the TGI of the same compound?
Answer: 61600 nM

Question: How did the GI50 turn out when `C=C1C[C@H](O)[C@H](Br)C(C)(C)[C@@]12CCC(C)=C(Cl)C2` was run?
Answer: 36.9 nM

Question: What about the TGI of the same compound?
Answer: 397 nM

Question: Which results are given for `COc1ccc(C2c3cc4c(cc3OC3(OC)COC(=O)C23)OCO4)c(OC)c1` (stereo not drawn)?
Answer: GI50: 9240 nM; TGI: > 100000 nM

Question: `COc1ccc(Cn2c(Br)c3c(c2Br)-c2nc(N)sc2CC3)cc1` was tested. Which GI50 did it give?
Answer: 1900 nM

Question: And the TGI?
Answer: 14000 nM

Question: For `CC(C)[C@@H]1NC(=O)[C@]2(C)CSC(=N2)c2ccnc(c2)CNC(=O)C[C@@H](/C=C/CCS)OC1=O`, which GI50 is on record?
Answer: 569 nM

Question: Which GI50 does the source give for `NC(=S)N/N=C1\c2cc(Cl)ccc2-c2c1cc(Cl)cc2[N+](=O)[O-]` here?
Answer: 3070 nM

Question: What about the TGI of the same compound?
Answer: 9030 nM

Question: Which GI50 does the source give for `CC(C)(C)[Si](C)(C)OC1[C@@H](O[Si](C)(C)C(C)(C)C)[C@@H](CNC(=O)NC(=O)C(F)(F)F)O[C@H]1n1cnc2c(NC(=O)Nc3ccccc3)ncnc21` (stereo partly drawn) here?
Answer: 2180 nM

Question: What about the TGI of the same compound?
Answer: 9160 nM

Question: Which GI50 does the source give for `Nc1nc2[nH]cc(CCc3ccc(C(=O)N[C@@H](CCC(=O)O)C(=O)O)cc3)c2c(=O)[nH]1` here?
Answer: 2570 nM

Question: What about the TGI of the same compound?
Answer: > 100000 nM

Question: `c1ccc(-c2n(Cc3ccc4ccccc4n3)cc[n+]2Cc2ccc3ccccc3c2)cc1` was tested. Which GI50 did it give?
Answer: 222 nM

Question: What about the TGI of the same compound?
Answer: 1090 nM

Question: For `NCCNCCNCCN`, which GI50 is on record?
Answer: > 100000 nM

Question: And the TGI?
Answer: > 100000 nM

Question: `NC(=S)N/N=C\c1nccc2c(C(F)(F)F)cccc12` was tested. Which GI50 did it give?
Answer: 199 nM

Question: What about the TGI of the same compound?
Answer: 612 nM

Question: `O=C1c2ccccc2C(=O)c2c(/C=C\N3CCCCC3)ccnc21` was tested. Which GI50 did it give?
Answer: 12900 nM

Question: What about the TGI of the same compound?
Answer: 26800 nM

Question: With `Cc1ccc(NC2=C3CCCCC3OC2=O)cc1` (stereo not drawn) as the compound, how does the GI50 read?
Answer: 21900 nM

Question: What about the TGI of the same compound?
Answer: > 100000 nM

Question: Which results are given for `N=C(N)c1ccc(OCCCCCCCCCCOc2ccc(C(=N)N)cc2)cc1`?
Answer: GI50: 414 nM; TGI: 1800 nM

Question: Which results are given for `CCCCCCOc1ccc(/C=N/Nc2cc(C)nc3ccc(Cl)cc23)cc1`?
Answer: GI50: 1650 nM; TGI: 3130 nM

Question: `O=C(Nc1nn2c(-c3cc(C(F)(F)F)cc(C(F)(F)F)c3)nnc2s1)C1CCCC1` was tested. Which GI50 did it give?
Answer: 356 nM

Question: What about the TGI of the same compound?
Answer: 4350 nM

Question: How did the GI50 turn out when `Cc1ccc(-c2nc(N3CCNCC3)c3oc(-c4ccc(C)cc4)nc3n2)cc1` was run?
Answer: 3290 nM

Question: What about the TGI of the same compound?
Answer: > 21800 nM

Question: `O=[N+]([O-])c1cc([N+](=O)[O-])c(C(F)(F)F)cc1NN=C(c1ccc(O)cc1)c1ccc(O)cc1` was tested. Which GI50 did it give?
Answer: 3210 nM

Question: What about the TGI of the same compound?
Answer: 15400 nM

Question: Which results are given for `C=CC(=O)Nc1cc(Nc2nccc(-c3cn(C)c4ccccc34)n2)c(OC)cc1N(C)CCN(C)C`?
Answer: GI50: 27.1 nM and 47.2 nM; TGI: 332 nM

Question: Which GI50 does the source give for `COc1cc(-c2nn(-c3cccc(NC(=O)c4ccccc4)c3)cc2-c2ccncc2)ccc1Cl` here?
Answer: 349 nM

Question: And the TGI?
Answer: 3420 nM

Question: Which GI50 does the source give for `CCOC(=O)n1cc(C2=C(c3ccc(OC)c(OC)c3)COC2=O)c2ccccc21` here?
Answer: 35.7 nM

Question: And the TGI?
Answer: > 100000 nM

Question: What does the source list for `CCCCCCCCCCSC(=N)N` (tested in a mixture with another compound)?
Answer: GI50: 2100 nM; TGI: 4860 nM

Question: With `c1ccc(Nc2ncc(-c3ccccc3)o2)cc1` as the compound, how does the GI50 read?
Answer: 8410 nM

Question: What about the TGI of the same compound?
Answer: > 25000 nM

Question: How did the GI50 turn out when `CN(C)CC(O)c1ccc(/C=C/c2ccc(Cl)cc2)cc1` (stereo not drawn) was run?
Answer: 1750 nM

Question: And the TGI?
Answer: 3830 nM

Question: How did the GI50 turn out when `OC(c1cc(C(F)(F)F)nc2c(C(F)(F)F)cccc12)C1CCCCN1` (stereo not drawn) was run?
Answer: 1630 nM

Question: And the TGI?
Answer: 3370 nM

Question: `COC(=O)/C=C/c1cc(OC(C)=O)c2c(c1)[C@@H](C(=O)OC)[C@H](c1ccc(OC(C)=O)c(OC(C)=O)c1)O2` was tested. Which GI50 did it give?
Answer: 380 nM

Question: And the TGI?
Answer: 13700 nM

Question: For `CC[C@@H](c1ccc(O)c(O)c1)[C@@H](CC)c1ccc(O)c(O)c1`, which GI50 is on record?
Answer: 2090 nM

Question: And the TGI?
Answer: 5510 nM

Question: With `COc1cc(-c2nc3sccn3c2-c2ccnc(NCCNS(=O)(=O)c3ccc(F)cc3)n2)ccc1F` as the compound, how does the GI50 read?
Answer: 2720 nM

Question: What about the TGI of the same compound?
Answer: > 100000 nM

Question: `Cc1ccc(S(=O)(=O)N2C3C=CC(C3)[C@@H]2C(Cl)(Cl)Cl)cc1` (stereo partly drawn) was tested. Which GI50 did it give?
Answer: 6320 nM

Question: And the TGI?
Answer: 33100 nM

Question: What does the source list for `CCN(CC)c1ccc(/C=N/NC(=O)c2ccc(S(N)(=O)=O)cc2)c(O)c1`?
Answer: GI50: 258 nM; TGI: 1140 nM

Question: For `O=C1NC(=NCc2ccccc2)S/C1=C\c1ccc2ncccc2c1`, which GI50 is on record?
Answer: > 16200 nM

Question: And the TGI?
Answer: > 25000 nM

Question: `CN1CCN(C(=O)COc2ccc(C34CC5CC(CC(C5)C3)C4)cc2)CC1` was tested. Which GI50 did it give?
Answer: 9120 nM

Question: What about the TGI of the same compound?
Answer: 23100 nM

Question: Which results are given for `CC(=O)N[C@@H](Cc1ccc(OP(=O)(O)O)cc1)C(=O)N[C@H]1CCC(=O)N2CCC[C@@H](C(=O)Nc3cccc4ccccc34)N2C1=O`?
Answer: GI50: > 25000 nM; TGI: > 25000 nM

Question: Which GI50 does the source give for `CCCn1cnc2c(c1=N)C(c1ccc(F)cc1)c1sc3c(CC)cccc3c1O2` (stereo not drawn) here?
Answer: 350 nM

Question: What about the TGI of the same compound?
Answer: > 100000 nM

Source: PubChem BioAssay (NCI)
